Assay results published in paper PMC12670426 (Journal of Medicinal Chemistry, 2025).
Read-outs that look alike come from different tables or passages of the source.

Tests used:
[1] = Microsomal stability assay, human liver microsomes; assay type: in vitro ADME; settings: pooled liver microsomes, pH 7.4, human liver microsomes 0.5 mg/mL, NADPH
Experimental: (§1) Microsomal stability was determined using 0.5 mg/mL of pooled human, mouse, or rat liver microsomes (Thermo Fisher Scientific) in 90 mM TRIS-Cl buffer (pH 7.4) containing 2 mM NADPH and 2 mM MgCl2. Test compounds (10 μM) were added, and the resulting mixture was incubated at 37 °C for 10, 60, 120, and 180 min. The reactions were terminated by the addition of four volumes of ice-cold methanol, followed by vigorous mixing. The samples were left at −20 °C for 30 min and then stored at 4 °C overnight. The next day, samples were centrifuged, and supernatants were diluted with four volumes of 30% methanol in water. Zero time points were prepared by adding ice-cold methanol to the mixture of compounds and cofactors prior to the addition of microsomes. The samples were then analyzed using the Echo-MS system (SCIEX) with MRM transition monitoring, except for compound 3af, which was analyzed by LC–MS/MS as described in the plasma stability assay.

[2] = Plasma protein binding assay (rapid equilibrium dialysis), mouse plasma; assay type: in vitro ADME; settings: fraction bound, read-out: plasma protein binding Fb mouse (converted)
Experimental: (§2) Test compound (10 μM) was incubated at 37 °C for 4 h with mouse, rat, or human plasma (Biowest) in the donor well of a rapid equilibrium dialysis plate (Thermo Fisher Scientific). PBS was placed in the acceptor well. To stop the assay, samples were collected from both wells, and an equal volume of plasma was added to the PBS sample, and vice versa. Proteins were then precipitated by adding three volumes of ice-cold methanol. Samples were mixed gently, kept at −20 °C for 30 min, and then stored at 4 °C overnight. The next day, the samples were centrifuged, and the supernatants were diluted with four volumes of 30% methanol in water. The samples were then analyzed using the Echo-MS system (SCIEX) with MRM transition monitoring, except for compound 3af, which was analyzed by LC–MS/MS as described in the plasma stability assay.

[3] = Plasma protein binding assay (rapid equilibrium dialysis), human plasma; assay type: in vitro ADME; settings: fraction bound, read-out: plasma protein binding Fb human (converted)
Experimental: as §2

[4] = Plasma protein binding assay (rapid equilibrium dialysis), rat plasma; assay type: in vitro ADME; settings: fraction bound, read-out: plasma protein binding Fb rat (converted)
Experimental: as §2

[5] = target: T1, human galectin-1 (Gal-1, full length) (Homo sapiens, UniProt P09382); test: Competitive fluorescence polarization assay, Gal-1; assay type: binding
T1 construct: Gal-1 is a prototype galectin consisting of a single CRD and was used in full length; 6xHis tag with TEV protease site (N, cleaved yes); made in house; host or cells: BL21 Escherichia coli (pET-15b)
T1 sequence (P09382 2-135): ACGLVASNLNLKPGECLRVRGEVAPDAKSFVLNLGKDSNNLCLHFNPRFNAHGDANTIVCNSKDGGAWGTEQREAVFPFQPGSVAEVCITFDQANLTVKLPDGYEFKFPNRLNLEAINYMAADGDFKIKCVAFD
Procedure, shortened: (§3)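 Competitive fluorescence polarization (anisotropy) with a fluorescent probe; full-length Gal-1 and C-terminal CRD construct of Gal-3. Read after 30–60 min incubation at 25 °C. Kd fitted with Wang's exact cubic competitive model, rmin/rmax fixed from direct binding.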

[6] = Kinetic solubility assay in PBS; assay type: physicochemical; settings: aqueous buffer, kinetic from dmso stock; PBS at pH 7.4, 100 μM final, 2 h room temperature
Experimental: The solutions were incubated at room temperature for 2 h and filtered by centrifugation. Filtrates were diluted 100-fold with 50% acetonitrile in water and then analyzed on the Echo-MS system (SCIEX) using MRM transition monitoring, except for compound 3af, which was analyzed by LC–MS/MS as described in the plasma stability assay. Compound concentrations were quantified against calibration curves prepared in the identical matrix as the samples.

[7] = Plasma stability assay, rat plasma; assay type: in vitro ADME; settings: 37 °C
Experimental: (§4) Test compounds (10 μM) were incubated with mouse, rat, or human pooled plasma from 50 donors (Biowest) at 37 °C for 20, 60, and 120 min. Reactions were terminated by adding four volumes of ice-cold methanol, followed by vigorous mixing. Samples were kept at −20 °C for 30 min and then stored at 4 °C overnight. The next day, samples were centrifuged, and supernatants were diluted with four volumes of 30% methanol in water. Zero time points were prepared by adding ice-cold methanol to the compound prior to the addition of plasma. Samples were then analyzed on an Echo MS system (SCIEX) using multiple reaction monitoring (MRM). The only exception was compound 3af, which was analyzed by LC–MS/MS (SCIEX 6500 triple quadrupole) due to its weak ionization in Echo-MS.

[8] = Microsomal stability assay, rat liver microsomes; assay type: in vitro ADME; settings: pooled liver microsomes, pH 7.4, rat liver microsomes 0.5 mg/mL, NADPH
Experimental: as §1

[9] = Plasma stability assay, human plasma; assay type: in vitro ADME; settings: pooled plasma, 37 °C
Experimental: as §4

[10] = Plasma protein binding, summary across species; assay type: in vitro ADME; settings: summary across human, mouse and rat plasma
Experimental: as §2

[11] = target: T2, human galectin-3C (Gal-3C, C-terminal CRD of galectin-3) (Homo sapiens, UniProt P17931); test: Competitive fluorescence polarization assay, Gal-3C; assay type: binding
T2 construct: only the C-terminal domain was used (Gal-3C); 6xHis tag with TEV protease site (N, cleaved yes); made in house; host or cells: BL21 Escherichia coli (pET-15b)
T2 sequence (P17931 118-248 limits assumed): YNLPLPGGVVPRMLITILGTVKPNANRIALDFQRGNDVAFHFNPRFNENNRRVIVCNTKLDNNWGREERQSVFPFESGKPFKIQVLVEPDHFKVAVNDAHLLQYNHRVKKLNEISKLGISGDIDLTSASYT
Procedure, shortened: as §3

[12] = Microsomal stability assay, mouse liver microsomes; assay type: in vitro ADME; settings: pooled liver microsomes, pH 7.4, mouse liver microsomes 0.5 mg/mL, NADPH
Experimental: as §1

[13] = Plasma stability assay, mouse plasma; assay type: in vitro ADME; settings: 37 °C
Experimental: as §4

galectin CRD = target: galectin CRD; set-up: method as in not given; settings: endogenous ligand binding the galectin CRD; literature value, ref not given; cited from earlier work
Gal-3C = target: T3, Gal-3C (Homo sapiens, UniProt P17931); test: Direct binding fluorescence polarization of the fluorescent probe, Gal-3C; settings: [probe] 5 nM, mean ± SD
T3 construct: only the C-terminal domain was used (Gal-3C); 6xHis tag with TEV protease site (N, cleaved yes); made in house; host or cells: BL21 Escherichia coli (pET-15b)
T3 sequence (P17931 118-248 limits assumed): as above
Experimental: (§5) Fluorescence polarization measurements were performed at 25 °C using a Tecan Spark multiplate reader (Tecan, Switzerland) with excitation at 485 ± 20 nm and emission at 535 ± 20 nm in a 384-well black polystyrene microplate (Corning 4514, USA). Dissociation constants of the probe (K d ^*) were determined by fitting the binding data with a quadratic model for direct binding using the BindCurve package. Additional details on the model, probe concentrations, and fitting parameters are provided in the Supporting Information.
(§6) Fluorescence polarization
(§7) Direct binding was modeled by a quadratic model, which is written as […]
(§8) where r corresponds to the measured anisotropy, rmin corresponds to the anisotropy of the free probe (labeled ligand), and rmax corresponds to maximal anisotropy, which is achieved when all molecules of the probe are bound to the receptor. Kd∗ is the dissociation constant of the probe and [R] is the concentration of free receptor. [R] is determined by a quadratic equation […]
(§9) where [L∗]T is the total concentration of the probe and [R]T is the total concentration of the receptor. Using quadratic formula, the positive root is calculated as […]
(§10) Table S1. Calculated Kd∗ values, total concentrations of the fluorescent probe, and model asymptotes from direct binding experiments. […]
(§11) a K∗ values are expressed as mean ± SD from two independent experiments, each performed […]

Gal-1 = test: Direct binding fluorescence polarization of the fluorescent probe, Gal-1; set-up: species or system human; settings: [probe] 100 nM, mean ± SD
Experimental: as §5, §6, §7, §8, §9, §10, §11

[14] = CSV supplement, unrounded mean, read-out: Gal1_IC50_mean_uM
[15] = CSV supplement, unrounded mean, read-out: Gal1_Kd_mean_uM
[16] = competitive fluorescence polarization, mean ± SD, read-out: Kd Gal-1
[17] = four-parameter logistic model, mean ± SD, read-out: IC50 Gal-1
[18] = CSV supplement, unrounded mean, read-out: Gal3C_IC50_mean_uM
[19] = CSV supplement, unrounded mean, read-out: Gal3C_Kd_mean_uM
[20] = competitive fluorescence polarization, mean ± SD, read-out: Kd Gal-3C
[21] = four-parameter logistic model, mean ± SD, read-out: IC50 Gal-3C

SMILES: CC(=O)N(c1cc(O)cc(C(=O)O)c1)[C@@H]1O[C@H](CO)[C@@H](O[C@@H]2O[C@H](CO)[C@H](O)[C@H](O)[C@H]2O)[C@H](O)[C@H]1O [Compound 3ad, N-[4-O-(β-D-Galactopyranosyl)-β-D-glucopyranosyl]-N-(3-carboxy-5-hydroxyphenyl)acetamide]
- microsomal CLint at 10 μM [1]: < 2 µL/min/mg
- fraction unbound at 4 h, 10 μM [2]: 0.93
- fraction unbound at 4 h, 10 μM [3]: 0.94
- fraction unbound at 4 h, 10 μM [4]: 0.94
- IC50 [5, 14]: 1240 µM
- Kd [5, 15]: 737 µM
- Kd [5, 16]: 740 ± 20 µM
- IC50 [5, 17]: 1200 ± 300 µM
- solubility kinetic at 2 h [6]: > 100 µM
- remaining at 2 h, 10 μM [7]: 140 ± 7%
- microsomal CLint at 10 μM [8]: < 2 µL/min/mg
- remaining at 2 h, 10 μM [9]: 99 ± 8%
- fraction unbound at 4 h, 10 μM [10]: > 0.9
- IC50 [11, 18]: 32.2 µM
- Kd [11, 19]: 11.4 µM
- Kd [11, 20]: 11 ± 2 µM
- IC50 [11, 21]: 32 ± 2 µM
- microsomal CLint at 10 μM [12]: < 2 µL/min/mg
- remaining at 2 h, 10 μM [13]: 110 ± 2%

SMILES: CC(=O)N(c1cc(C(=O)O)cc2[nH]ccc12)[C@@H]1O[C@H](CO)[C@@H](O[C@@H]2O[C@H](CO)[C@H](O)[C@H](O)[C@H]2O)[C@H](O)[C@H]1O [Compound 3af, N-[4-O-(β-D-Galactopyranosyl)-β-D-glucopyranosyl]-N-(6-carboxy-1H-indol-4-yl)acetamide]
- microsomal CLint at 10 μM [1]: 3 µL/min/mg
- fraction unbound at 4 h, 10 μM [2]: > 0.95
- fraction unbound at 4 h, 10 μM [3]: > 0.95
- fraction unbound at 4 h, 10 μM [4]: 0.73
- IC50 [5, 14]: 1530 µM
- Kd [5, 15]: 846 µM
- Kd [5, 16]: 850 ± 200 µM
- IC50 [5, 17]: 1500 ± 300 µM
- solubility kinetic at 2 h [6]: > 100 µM
- remaining at 2 h, 10 μM [7]: 94%
- microsomal CLint at 10 μM [8]: < 2 µL/min/mg
- remaining at 2 h, 10 μM [9]: 100%
- fraction unbound at 4 h, 10 μM [10]: > 0.9
- IC50 [11, 18]: 11.4 µM
- Kd [11, 19]: 4.15 µM
- enhancement of affinity for Gal-3C compared to 3r ([11]; compared to 3r): 10 fold
- improvement in affinity toward Gal-3C compared to 3a ([11]; compared to unsubstituted phenyl derivative 3a): 27 fold
- improvement in affinity toward Gal-3C compared to β-LacOMe ([11]; compared to β-LacOMe): 56 fold
- Kd [11, 20]: 4.1 ± 0.4 µM
- IC50 [11, 21]: 11 ± 0.9 µM
- selectivity for Gal-3C over Gal-1 ([11]; ratio Kd (Gal-1)/Kd (Gal-3C)): more than 200 fold
- microsomal CLint at 10 μM [12]: < 2 µL/min/mg
- remaining at 2 h, 10 μM [13]: 76%

SMILES: CC(=O)c1c[nH]c2cc(C(=O)O)cc(N(C(C)=O)[C@@H]3O[C@H](CO)[C@@H](S[C@@H]4O[C@H](CO)[C@H](O)[C@H](n5cc(-c6cccc(F)c6)nn5)[C@H]4O)[C@H](O)[C@H]3O)c12 [Compound 10, N-[4-S-(3-Deoxy-3-(4-(3-fluorophenyl)-1H-1,2,3-triazol-1-yl)-β-D-galactopyranosyl)-4-thio-β-D-glucopyranosyl]-N-(3-acetyl-6-carboxy-1H-indol-4-yl)acetamide]
- microsomal CLint at 10 μM [1]: < 2 µL/min/mg
- fraction unbound at 4 h, 10 μM [2]: 0.78
- fraction unbound at 4 h, 10 μM [3]: 0.66
- fraction unbound at 4 h, 10 μM [4]: 0.75
- IC50 [5, 14]: 7.16 µM
- Kd [5, 15]: 3.62 µM
- Kd [5, 16]: 3.6 ± 0.4 µM
- IC50 [5, 17]: 7.2 ± 0.6 µM
- solubility kinetic at 2 h [6]: > 100 µM
- remaining at 2 h, 10 μM [7]: 110 ± 5%
- microsomal CLint at 10 μM [8]: < 2 µL/min/mg
- remaining at 2 h, 10 μM [9]: 92 ± 6%
- fraction unbound at 4 h, 10 μM [10]: 0.1 to 0.78
- IC50 [11, 18]: 0.154 µM
- Kd [11, 19]: 0.0315 µM
- Kd [11, 20]: 0.031 ± 0.004 µM
- IC50 [11, 21]: 0.15 ± 0.009 µM
- microsomal CLint at 10 μM [12]: < 2 µL/min/mg
- remaining at 2 h, 10 μM [13]: 89 ± 5%

SMILES: CC(=O)N[C@H]1C(O)O[C@H](CO)[C@@H](O[C@@H]2O[C@H](CO)[C@H](O)[C@H](O)[C@H]2O)[C@@H]1O (stereo partly shown) [LacNAc, N-acetyllactosamine]
- Kd (galectin CRD): ~100 µM

SMILES: O=C(NCc1cn([C@H]2[C@@H](O)[C@@H](CO)O[C@@H](S[C@@H]3O[C@H](CO)[C@H](O)[C@H](n4cc(-c5cccc(F)c5)nn4)[C@H]3O)[C@@H]2O)nn1)c1ccc2c(c1)C(=O)OC21c2ccc(O)cc2Oc2cc(O)ccc21 [fluorescent probe, 3-deoxy-3-[4-(fluorescein-5-yl-carbonylaminomethyl)-1H-1,2,3-triazol-1-yl]-β-D-galactopyranosyl-3-deoxy-3-[4-(3-fluorophenyl)-1H-1,2,3-triazol-1-yl]-1-thio-β-D-galactopyranoside]
- Kd (Gal-3C): 0.022 ± 0.002 µM
- Kd (Gal-1): 0.74 ± 0.009 µM
